For 26 molecules, inhibition and IC50 results are on record in ChEMBL document CHEMBL4011597, “Synthesis, screening and docking of fused pyrano[3,2-d]pyrimidine derivatives as xanthine oxidase inhibitor” (Eur J Med Chem, 2017).

Test [1] has as its target T1, Xanthine dehydrogenase/oxidase (Bos taurus, UniProt P80457). Kind of test: Inhibition of bovine xanthine oxidase assessed as reduction in uric acid formation at 1 uM using xanthine as substrate pretreated for 5 mins followed by substrate addition measured by UV-vis spectrophotometric method relative to control. The following applies: cattle.
The target of test [2] is T1, Xanthine dehydrogenase/oxidase. Kind of test: Inhibition of bovine xanthine oxidase assessed as reduction in uric acid formation at 100 uM using xanthine as substrate pretreated for 5 mins followed by substrate addition measured by UV-vis spectrophotometric method relative to control. The following applies: cattle.
For test [3] the target is unchanged. Kind of test: Inhibition of bovine xanthine oxidase assessed as reduction in uric acid formation at 10 uM using xanthine as substrate pretreated for 5 mins followed by substrate addition measured by UV-vis spectrophotometric method relative to control. Particulars: cattle.
For test [4] the target is unchanged. Briefly: Inhibition of bovine xanthine oxidase assessed as reduction in uric acid formation using xanthine as substrate pretreated for 5 mins followed by substrate addition measured by UV-vis spectrophotometric method.

pIC50: −log10 of the molar value.

T1 sequence (P80457 whole entry): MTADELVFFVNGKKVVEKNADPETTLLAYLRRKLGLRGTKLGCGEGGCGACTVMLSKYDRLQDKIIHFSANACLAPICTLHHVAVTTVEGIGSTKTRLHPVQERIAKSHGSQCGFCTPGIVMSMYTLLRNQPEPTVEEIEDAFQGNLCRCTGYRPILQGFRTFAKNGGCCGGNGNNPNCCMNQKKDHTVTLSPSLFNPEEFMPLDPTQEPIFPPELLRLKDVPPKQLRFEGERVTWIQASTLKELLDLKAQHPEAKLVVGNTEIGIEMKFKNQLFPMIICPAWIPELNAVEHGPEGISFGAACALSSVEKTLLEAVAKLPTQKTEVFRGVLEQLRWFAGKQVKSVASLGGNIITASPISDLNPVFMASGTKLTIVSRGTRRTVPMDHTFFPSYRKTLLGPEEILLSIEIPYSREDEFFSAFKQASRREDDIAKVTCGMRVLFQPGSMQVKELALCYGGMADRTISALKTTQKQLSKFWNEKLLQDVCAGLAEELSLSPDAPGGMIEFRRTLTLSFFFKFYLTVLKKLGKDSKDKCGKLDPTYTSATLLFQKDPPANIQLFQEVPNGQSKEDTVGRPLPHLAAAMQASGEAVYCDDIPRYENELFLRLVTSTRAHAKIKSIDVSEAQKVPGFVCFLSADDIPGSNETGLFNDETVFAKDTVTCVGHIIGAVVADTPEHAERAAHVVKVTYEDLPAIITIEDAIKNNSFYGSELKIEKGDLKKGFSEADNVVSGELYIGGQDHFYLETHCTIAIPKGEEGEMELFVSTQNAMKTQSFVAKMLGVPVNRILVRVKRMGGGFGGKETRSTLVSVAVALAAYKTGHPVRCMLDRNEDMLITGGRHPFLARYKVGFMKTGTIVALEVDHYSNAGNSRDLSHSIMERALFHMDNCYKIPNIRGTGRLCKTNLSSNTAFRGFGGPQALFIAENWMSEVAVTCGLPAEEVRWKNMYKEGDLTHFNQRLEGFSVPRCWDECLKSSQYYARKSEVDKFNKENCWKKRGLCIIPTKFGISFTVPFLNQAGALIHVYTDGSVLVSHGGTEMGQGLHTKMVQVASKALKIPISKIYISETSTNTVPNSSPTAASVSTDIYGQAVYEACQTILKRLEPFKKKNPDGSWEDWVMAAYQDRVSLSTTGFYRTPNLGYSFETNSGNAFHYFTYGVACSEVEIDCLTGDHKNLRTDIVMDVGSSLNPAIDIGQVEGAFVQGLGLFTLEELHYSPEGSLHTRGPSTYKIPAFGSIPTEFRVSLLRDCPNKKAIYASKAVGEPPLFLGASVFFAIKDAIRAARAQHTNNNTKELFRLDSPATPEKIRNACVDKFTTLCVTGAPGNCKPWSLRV

A word on the inhibition: it is the relative decrease from the control value, in per cent. Usually pIC50 stands for the IC50 on a negative log10 scale, so that one unit is a factor of ten. As for `COc1ccc(Nc2ncnc3c2C(c2ccc(OC)cc2)c2c(c(=O)oc4ccccc24)O3)cc1` (centres undefined), the inhibition at 1 µM in test [1] turned out to be 32.4%. Further, in test [2], the inhibition at 100 µM is 85.3%. Besides, the inhibition at 10 µM in test [3] was determined as 43.7%. The pIC50 in test [4] is 4.62.
The corresponding values for `COc1ccc(Nc2ncnc3c2C(c2cc(OC)c(OC)c(OC)c2)C2=C(CCCC2=O)O3)cc1` (centres undefined) are 27.4%, 76.8%, 38% and 4.40.
The corresponding values for `COc1ccc(Nc2ncnc3c2C(c2cc(OC)c(OC)c(OC)c2)c2c(c(=O)oc4ccccc24)O3)cc1` (centres undefined) are 26.2%, 74.5%, 37.2% and 4.38.
The corresponding values for `COc1ccc(Nc2ncnc3c2C(c2ccc(Br)cc2)C2=C(CCCC2=O)O3)cc1` (centres undefined) are 23.1%, 67%, 33.5% and 4.24.
As for `COc1ccc(Nc2ncnc3c2C(c2ccc(O)cc2)c2c(c(=O)oc4ccccc24)O3)cc1` (centres undefined), the inhibition at 1 µM in test [1] stood at 30.9%. Further, the inhibition at 100 µM in test [2] stood at 82.4%. Also, the inhibition at 10 µM in test [3] came out at 41.2%. Moreover, the pIC50 in test [4] is 4.52.
The corresponding values for `COc1ccc(Nc2ncnc3c2C(c2ccc([N+](=O)[O-])cc2)c2c(c(=O)oc4ccccc24)O3)cc1` (centres undefined) are 22.2%, 61.9%, 30.5% and 4.19.
The corresponding values for `COc1ccc(Nc2ncnc3c2C(c2cccc(O)c2)c2c(c(=O)oc4ccccc24)O3)cc1` (centres undefined) are 28.5%, 81.3%, 39.5% and 4.46.
The corresponding values for `COc1ccc(Nc2ncnc3c2C(c2ccccc2)c2c(c(=O)oc4ccccc24)O3)cc1` (centres undefined) are 25.1%, 72.8%, 36.4% and 4.40.
For `COc1ccc(Nc2ncnc3c2C(c2ccc(OC)c(OC)c2)C2=C(CCCC2=O)O3)cc1` (centres undefined), the inhibition at 1 µM in test [1] came to 29.3%. Also, in test [2], the inhibition at 100 µM was determined as 94.2%. Further, in test [3], the inhibition at 10 µM came to 57.5%. Also, in test [4], the pIC50 was 5.10.
Take `COc1ccc(Nc2ncnc3c2C(c2ccc(OC)c(OC)c2)c2c(n[nH]c2C)O3)cc1` (centres undefined): the inhibition at 1 µM in test [1] is 23.6%. The inhibition at 100 µM in test [2] was 63.7%. Further, in test [3], the inhibition at 10 µM was 31.4%. The pIC50 in test [4] was 4.19.
For the molecule `COc1ccc(Nc2ncnc3c2C(c2ccc(O)c(OC)c2)c2c(c(=O)oc4ccccc24)O3)cc1` (centres undefined), the inhibition at 1 µM in test [1] was 33.2%. For the same molecule, the inhibition at 100 µM in test [2] came to 92.3%. Further, in test [3], the inhibition at 10 µM was 47.2%. The pIC50 in test [4] was 4.82.
`COc1ccc(Nc2ncnc3c2C(c2cccc(Cl)c2)c2c(c(=O)oc4ccccc24)O3)cc1` (centres undefined): the inhibition at 1 µM in test [1] came out at 23.2%. Also, in test [2], the inhibition at 100 µM came to 69.6%. Further, the inhibition at 10 µM in test [3] was determined as 34.5%. Besides, in test [4], the pIC50 was 4.27.
The corresponding values for `COc1ccc(Nc2ncnc3c2C(c2ccc(O)cc2)C2=C(CCCC2=O)O3)cc1` (centres undefined) are 30.5%, 84.8%, 42.4% and 4.55.
The corresponding values for `COc1ccc(Nc2ncnc3c2C(c2cccc(O)c2)C2=C(CCCC2=O)O3)cc1` (centres undefined) are 29.4%, 82.3%, 41.2% and 4.52.
The corresponding values for `COc1ccc(Nc2ncnc3c2C(c2ccc(O)c(OC)c2)C2=C(CCCC2=O)O3)cc1` (centres undefined) are 30.3%, 95%, 60% and 5.15.
Consider `COc1ccc(Nc2ncnc3c2C(c2ccc([N+](=O)[O-])cc2)C2=C(CCCC2=O)O3)cc1` (centres undefined), for which, in test [1], the inhibition at 1 µM came out at 20%. Further, the inhibition at 100 µM in test [2] is 63.5%. In addition, in test [3], the inhibition at 10 µM was 31.5%. In test [4], the pIC50 was 4.17.
The corresponding values for `COc1ccc(Nc2ncnc3c2C(c2ccccc2OC)c2c(c(=O)oc4ccccc24)O3)cc1` (centres undefined) are 30.2%, 83.6%, 41.1% and 4.54.
Consider `COc1ccc(Nc2ncnc3c2C(c2cccc(C)c2)C2=C(CCCC2=O)O3)cc1` (centres undefined), for which the inhibition at 1 µM in test [1] was found to be 31%. Besides, the inhibition at 100 µM in test [2] was found to be 80.5%. In test [3], the inhibition at 10 µM came out at 40.2%. In addition, in test [4], the pIC50 was 4.46.
The corresponding values for `COc1ccc(Nc2ncnc3c2C(c2ccccc2)C2=C(CCCC2=O)O3)cc1` (centres undefined) are 29.1%, 75.4%, 37.5% and 4.40.
The corresponding values for `COc1ccc(Nc2ncnc3c2C(c2ccc(F)cc2)C2=C(CCCC2=O)O3)cc1` (centres undefined) are 27.1%, 71.1%, 35.5% and 4.30.
The corresponding values for `COc1ccc(Nc2ncnc3c2C(c2ccc(O)c(O)c2)C2=C(CCCC2=O)O3)cc1` (centres undefined) are 27.3%, 93.8%, 56.5% and 5.07.
On to `COc1ccc(Nc2ncnc3c2C(c2ccc(F)cc2)c2c(c(=O)oc4ccccc24)O3)cc1` (centres undefined), for which, in test [1], the inhibition at 1 µM was found to be 24.5%. Besides, the inhibition at 100 µM in test [2] is 70.2%. In addition, the inhibition at 10 µM in test [3] worked out at 35.1%. Also, in test [4], the pIC50 is 4.30.
The corresponding values for `COc1ccc(Nc2ncnc3c2C(c2ccc(Cl)cc2)c2c(c(=O)oc4ccccc24)O3)cc1` (centres undefined) are 21.3%, 67.2%, 33.5% and 4.25.
The corresponding values for `COc1ccc(Nc2ncnc3c2C(c2cccc(Cl)c2)C2=C(CCCC2=O)O3)cc1` (centres undefined) are 29.2%, 70.2%, 34.6% and 4.28.
The corresponding values for `COc1ccc(Nc2ncnc3c2C(c2cccc(C)c2)c2c(c(=O)oc4ccccc24)O3)cc1` (centres undefined) are 28.7%, 78.2%, 39.1% and 4.43.
Turning to `COc1ccc(Nc2ncnc3c2C(c2ccc(Br)cc2)c2c(c(=O)oc4ccccc24)O3)cc1` (centres undefined), the inhibition at 1 µM in test [1] amounted to 22.2%. Also, the inhibition at 100 µM in test [2] was 65.8%. Moreover, the inhibition at 10 µM in test [3] was determined as 32.4%. For the same molecule, in test [4], the pIC50 is 4.22.
